For the data set, the system named is American home dust mites. Put plainly: Efficacy of plant essential oils (actives) against dust mite, residue on glass petri dish. The source says:
Efficacy of different plant essential oils (actives) against dust mite
Two different concentrations of each test actives were used
50 dust mites (American home dust mites) were used per replicate. Four replicates were used per test concentration
Chemicals were applied to the surface of 100 mm glass petri dish in acetone. The control plates received same volume of solvent (acetone) only. All plates left at room temperature for air dry. After 1 hr (complete evaporation of acetone) the dust mites were transferred to each plate.
test actives were tested with and without 2 parts of piperonyl butoxide (PBO), known synergist.
Data are the mean of four replicates (200 dust mites per test concentration per chemical)

Setting [1] is: 25 ppm, 5 min, W/PBO (2 parts piperonyl butoxide).
The mark [2] stands for this setting: 25 ppm, 15 min, W/PBO (2 parts piperonyl butoxide).
[3] abbreviates: 25 ppm, 60 min, W/PBO (2 parts piperonyl butoxide).
The mark [4] stands for this setting: 250 ppm, 5 min, W/PBO (2 parts piperonyl butoxide).

Turning to `Cc1ccc(C(C)C)c(O)c1` [thymol], the “% Mortality” value came to 67% (25 ppm, 5 min, W/O PBO); 80% under setting [1]; 72.2% (25 ppm, 15 min, W/O PBO); 85.0% under setting [2]; 80.0% (25 ppm, 60 min, W/O PBO); 87.5% under setting [3]. The “% Mortality” value is, setting by setting: (250 ppm, 5 min, W/O PBO) 100%; under setting [4], 100%.

With `OCc1ccccc1` [BA, Benzyl Alcohol], the “% Mortality” value runs as follows: (25 ppm, 5 min, W/O PBO) 53%; under setting [1], 68%; (25 ppm, 15 min, W/O PBO) 61.0%; under setting [2], 73.0%; (25 ppm, 60 min, W/O PBO) 68.0%; under setting [3], 79.0%. Also, the “% Mortality” value reads like this: (250 ppm, 5 min, W/O PBO) 90%; under setting [4], 100%; (250 ppm, 15 min, W/O PBO) 98%; (250 ppm, 60 min, W/O PBO) 100%.

Take `CCC(=O)OCCc1ccccc1` [PEP, phenethyl propionate]: the “% Mortality” value runs as follows: (25 ppm, 5 min, W/O PBO) 54%; under setting [1], 63%; (25 ppm, 15 min, W/O PBO) 60.0%; under setting [2], 69.0%; (25 ppm, 60 min, W/O PBO) 62.0%; under setting [3], 78.0%. The “% Mortality” value by setting is: (250 ppm, 5 min, W/O PBO) 80%; under setting [4], 97%; (250 ppm, 15 min, W/O PBO) 92%; (250 ppm, 15 min, W/PBO (2 parts piperonyl butoxide)) 99%; (250 ppm, 60 min, W/O PBO) 99%; (250 ppm, 60 min, W/PBO (2 parts piperonyl butoxide)) 100%.

The record behind these values is patent publication US6887899B1, “Method for controlling house dust mites with a composition comprising phenylethyl propionate” (Ecosmart Technologies, Inc., priority 1999, dated 2005).
